Experiments:
[1] = refractive index (Na D-line) (dimensionless); cn = amount concentration of the nth substance listed, in mol/dm3; conditions: 101 kPa, Liquid, Standard Abbe refractometry, c1 = 0.2
[2] = cn = amount concentration of the nth substance listed, in mol/dm3; conditions: 101 kPa, Liquid, c1 = 0.2; for mass density: Pycnometric method

O=C[C@H](O)[C@@H](O)[C@H](O)[C@H](O)CO [D-glucose] + O
Conditions	mass density, 298.15 K [kg/m3]	mass density, 313.15 K [kg/m3]	refractive index, 298.15 K	refractive index, 303.15 K	refractive index, 308.15 K	refractive index, 313.15 K	viscosity, 298.15 K [mPa·s]	viscosity, 303.15 K [mPa·s]	viscosity, 308.15 K [mPa·s]	viscosity, 313.15 K [mPa·s]
[1]	–	–	1.336	1.335	1.3349	1.334	–	–	–	–
[2]	1010.3	1005.3	–	–	–	–	1.01	0.89	0.8	0.7

Reference: the NIST ThermoML archive (doi:10.1016/j.jct.2005.04.011)
